This passage reports EC50 results from patent US12655156B2, “Oxadiazolopyrazines and oxadiazolopyridines useful as mitochondrial uncouplers” (Virginia Tech Intellectual Properties, Inc., priority 2018, dated 2026).

Usually EC50 stands for the midpoint of the concentration-response curve.

Molecules are shown by their SMILES.

This assay concerns whole cells (NMuLi, C2C12, and L6 cells, isolated cardiomyocytes, human primary fibroblasts). Briefly: Oxygen consumption rate (OCR) in whole cells, Seahorse XF-24 Flux Analyzer. The assay is classed as cell-based. To be noted: increase in OCR; binned EC50 values. How it is done:
Biological activities of the compounds synthesized is determined by determining increase in oxygen consumption rate (OCR).
Oxygen consumption rate (OCR) in whole cells is measured in general accordance with the method of Kenwood B M et al. (Mol. Met. (2014) 3:114-123).
OCR is measured using a Seahorse XF-24 Flux Analyzer (Seahorse Biosciences, North Billerica, MA). NMuLi, C2C12, and L6 cells are seeded in a Seahorse 24-well tissue culture plate at a density of 3.5×10^4 cells/well, isolated cardiomyocytes at a density of 4×10^4 cells/well, and human primary fibroblasts at a density of 1.1×10^4 cells/well. The cells are then allowed to adhere for 24 h. Prior to the assay, the media is changed to unbuffered DMEM containing pyruvate and glutamine (Gibco #12800-017, pH=7.4 at 37° C.) and the cells are equilibrated for 30 mins at 37°° C. Compounds are injected during the assay and OCR is measured using 2 min measurement periods.
2-3 wells are used per condition and averaged over three plates (n=6-9). Statistical significance is determined by two-way ANOVA with Bonferroni's posttest.
Activities are reported as binned EC50 values: A=5 μM or less; B=>5 to 20 μM; C=over 20 μM; NA=not active.
Molecule `Oc1nc2nonc2nc1Nc1ccccc1` [1-52, 6-(Phenylamino)-[1,2,5]oxadiazolo[3,4-b]pyrazin-5-ol] yielded an EC50 greater than 20 µM.

For the molecule `CC(C)(C)c1cccc(Nc2nc3nonc3nc2O)c1` [1-53, 6-((3-(tert-Butyl)phenyl)amino)-[1,2,5]oxadiazolo[3,4-b]pyrazin-5-ol], the EC50 is no more than 5 µM. Then `CCCCc1ccc(Nc2nc3nonc3nc2O)cc1` [1-54, 6-((4-Butylphenyl)amino)-[1,2,5]oxadiazolo[3,4-b]pyrazin-5-ol], with no more than 5 µM.

In turn, `CCCCc1ccc(Nc2nc3nonc3nc2O)c(F)c1` [1-55, 6-((4-Butyl-2-fluorophenyl)amino)-[1,2,5]oxadiazolo[3,4-b]pyrazin-5-ol] gave an EC50 of no more than 5 µM. Then `Cc1cccc(C)c1Nc1nc2nonc2nc1O` [1-56, 6-((2,6-Dimethylphenyl)amino)-[1,2,5]oxadiazolo[3,4-b]pyrazin-5-ol], with no more than 5 µM; and `Cc1ccc(Nc2nc3nonc3nc2O)cc1` [1-58, 6-(p-Tolylamino)-[1,2,5]oxadiazolo[3,4-b]pyrazin-5-ol], with greater than 20 µM; and `Cc1ccc(Nc2nc3nonc3nc2O)cc1C` [1-60, 6-((3,4-Dimethylphenyl)amino)-[1,2,5]oxadiazolo[3,4-b]pyrazin-5-ol], with 5 to 20 µM. Under `CCc1ccc(Nc2nc3nonc3nc2O)cc1` [1-61, 6-((4-Ethylphenyl)amino)-[1,2,5]oxadiazolo[3,4-b]pyrazin-5-ol] stands 5 to 20 µM; under `CCCC#Cc1ccc(Nc2nc3nonc3nc2O)c(F)c1` [1-62, 6-((2-Fluoro-4-(pent-1-yn-1-yl)phenyl)amino)-[1,2,5]oxadiazolo[3,4-b]pyrazin-5-ol], no more than 5 µM; under `CCCCC#Cc1ccc(Nc2nc3nonc3nc2O)c(F)c1` [1-63, 6-((2-Fluoro-4-(hex-1-yn-1-yl)phenyl)amino)-[1,2,5]oxadiazolo[3,4-b]pyrazin-5-ol], no more than 5 µM.

`CCCC#Cc1ccc(Nc2nc3nonc3nc2O)c(OC(F)(F)F)c1` [1-64, 6-((4-(Pent-1-yn-1-yl)-2-(trifluoromethoxy)phenyl)amino)-[1,2,5]oxadiazolo[3,4-b]pyrazin-5-ol]: the EC50 was no more than 5 µM. Under `CCCCC#Cc1ccc(Nc2nc3nonc3nc2O)c(OC(F)(F)F)c1` [1-65, 6-((4-(Hex-1-yn-1-yl)-2-(trifluoromethoxy)phenyl)amino)-[1,2,5]oxadiazolo[3,4-b]pyrazin-5-ol] stands 5 to 20 µM; under `CCCCCc1ccc(Nc2nc3nonc3nc2O)c(F)c1` [1-66, 6-((2-Fluoro-4-pentylphenyl)amino)-[1,2,5]oxadiazolo[3,4-b]pyrazin-5-ol], no more than 5 µM; under `CCCCCCc1ccc(Nc2nc3nonc3nc2O)c(F)c1` [1-67, 6-((2-Fluoro-4-hexylphenyl)amino)-[1,2,5]oxadiazolo[3,4-b]pyrazin-5-ol], no more than 5 µM. Under `CCc1ccc(Nc2nc3nonc3nc2O)c(F)c1` [1-68, 6-((4-ethyl-2-fluorophenyl)amino)-[1,2,5]oxadiazolo[3,4-b]pyrazin-5-ol] stands 5 to 20 µM; under `CCCCCc1ccc(Nc2nc3nonc3nc2O)c(OC(F)(F)F)c1` [1-69, 6-((4-Pentyl-2-(trifluoromethoxy)phenyl)amino)-[1,2,5]oxadiazolo[3,4-b]pyrazin-5-ol], no more than 5 µM. Under `CCCCCCc1ccc(Nc2nc3nonc3nc2O)c(OC(F)(F)F)c1` [1-70, 6-((4-hexyl-2-(trifluoromethoxy)phenyl)amino)-[1,2,5]oxadiazolo[3,4-b]pyrazin-5-ol] stands 5 to 20 µM; under `CCCCCc1ccc(Nc2nc3nonc3nc2O)cc1` [1-71, 6-((4-pentylphenyl)amino)-[1,2,5]oxadiazolo[3,4-b]pyrazin-5-ol], greater than 20 µM; under `CCCCCCc1ccc(Nc2nc3nonc3nc2O)cc1` [1-72, 6-((4-hexylphenyl)amino)-[1,2,5]oxadiazolo[3,4-b]pyrazin-5-ol], 5 to 20 µM. The molecule `CCCCCCCCNc1nc2nonc2nc1O` [1-74, 6-(octylamino)-[1,2,5]oxadiazolo[3,4-b]pyrazin-5-ol] yielded an EC50 of no more than 5 µM.

In the case of `Oc1nc2nonc2nc1NCc1ccc(Br)cc1` [1-77, 6-((4-bromobenzyl)amino)-[1,2,5]oxadiazolo[3,4-b]pyrazin-5-ol], the EC50 was greater than 20 µM. Under `Cc1ccc(CNc2nc3nonc3nc2O)cc1` [1-78, 6-((4-methylbenzyl)amino)-[1,2,5]oxadiazolo[3,4-b]pyrazin-5-ol] stands greater than 20 µM. Then `Oc1nc2nonc2nc1NC(c1ccccc1)c1ccccc1` [1-79, 6-(benzhydrylamino)-[1,2,5]oxadiazolo[3,4-b]pyrazin-5-ol], with greater than 20 µM; and `Oc1nc2nonc2nc1NCc1ccc(OC(F)(F)F)cc1` [1-80, 6-((4-(trifluoromethoxy)benzyl)amino)-[1,2,5]oxadiazolo[3,4-b]pyrazin-5-ol], with greater than 20 µM. Then `Oc1nc2nonc2nc1NC12CC3CC(CC(C3)C1)C2` [1-81, 6-(((3S,5S,7S)-adamantan-1-yl)amino)-[1,2,5]oxadiazolo[3,4-b]pyrazin-5-ol], with 5 to 20 µM; and `CC12CC3CC(C)(C1)CC(Nc1nc4nonc4nc1O)(C3)C2` [1-82, 6-(((1R,3R,5S,7R)-3,5-dimethyladamantan-1-yl)amino)-[1,2,5]oxadiazolo[3,4-b]pyrazin-5-ol], with no more than 5 µM; and `CC(Nc1nc2nonc2nc1O)C12CC3CC(CC(C3)C1)C2` [1-83, 6-((1-((1S,3S)-adamantan-1-yl)ethyl)amino)-[1,2,5]oxadiazolo[3,4-b]pyrazin-5-ol], with 5 to 20 µM. Molecule `Oc1nc2nonc2nc1NC1C2CC3CC(C2)CC1C3` [1-85, 6-(((1R,3R,5R,7R)-adamantan-2-yl)amino)-[1,2,5]oxadiazolo[3,4-b]pyrazin-5-ol] registered an EC50 greater than 20 µM. Under `Oc1nc2nonc2nc1Nc1ccc(OCc2ccccc2)cc1` [1-86, 6-((4-(benzyloxy)phenyl)amino)-[1,2,5]oxadiazolo[3,4-b]pyrazin-5-ol] stands no more than 5 µM. Then `Oc1nc2nonc2nc1Nc1ccc2c(c1)OCO2` [1-87, 6-(benzo[d][1,3]dioxol-5-ylamino)-[1,2,5]oxadiazolo[3,4-b]pyrazin-5-ol], with greater than 20 µM; and `Oc1nc2nonc2nc1Nc1ccc(OCC(F)(F)F)cc1` [1-88, 6-((4-(2,2,2-Trifluoroethoxy)phenyl)amino)-[1,2,5]oxadiazolo[3,4-b]pyrazin-5-ol], with greater than 20 µM. Under `Cc1cc(Nc2nc3nonc3nc2O)ccc1OCC(F)(F)F` [1-89, 6-((3-Methyl-4-(2,2,2-trifluoroethoxy)phenyl)amino)-[1,2,5]oxadiazolo[3,4-b]pyrazin-5-ol] stands 5 to 20 µM; under `Oc1nc2nonc2nc1Nc1ccc(OCC(F)(F)F)c(F)c1` [1-90, 6-((3-Fluoro-4-(2,2,2-trifluoroethoxy)phenyl)amino)-[1,2,5]oxadiazolo[3,4-b]pyrazin-5-ol], 5 to 20 µM.

As to `Oc1nc2nonc2nc1Nc1ccc(OCC(F)(F)F)c(C(F)(F)F)c1` [1-91, 6-((4-(2,2,2-Trifluoroethoxy)-3-(trifluoromethyl)phenyl)amino)-[1,2,5]oxadiazolo[3,4-b]pyrazin-5-ol], the EC50 lay within 5 to 20 µM. Then `Oc1nc2nonc2nc1Nc1ccc(OCC2CC2)c(C(F)(F)F)c1` [1-92, 6-((4-(cyclopropylmethoxy)-3-(trifluoromethyl)phenyl)amino)-[1,2,5]oxadiazolo[3,4-b]pyrazin-5-ol], with no more than 5 µM.

The molecule `Oc1nc2nonc2nc1Nc1ccc2c(c1)OC(F)(F)O2` [1-93, 6-((2,2-difluorobenzo[d][1,3]dioxol-5-yl)amino)-[1,2,5]oxadiazolo[3,4-b]pyrazin-5-ol] had an EC50 of 5 to 20 µM. `COc1ccccc1Nc1nc2nonc2nc1O` [1-94, 6-((2-methoxyphenyl)amino)-[1,2,5]oxadiazolo[3,4-b]pyrazin-5-ol]: the EC50 is greater than 20 µM. Then `CCCCOc1ccc(Nc2nc3nonc3nc2O)cc1` [1-95, 6-((4-butoxyphenyl)amino)-[1,2,5]oxadiazolo[3,4-b]pyrazin-5-ol], with no more than 5 µM; and `CCCCOc1cccc(Nc2nc3nonc3nc2O)c1` [1-96, 6-((3-butoxyphenyl)amino)-[1,2,5]oxadiazolo[3,4-b]pyrazin-5-ol], with no more than 5 µM. Under `Oc1nc2nonc2nc1Nc1cccc(OCc2ccc(C(F)(F)F)cc2)c1` [1-97, 6-((3-((4-(Trifluoromethyl)benzyl)oxy)phenyl)amino)-[1,2,5]oxadiazolo[3,4-b]pyrazin-5-ol] stands no more than 5 µM; under `O=C(COc1cccc(Nc2nc3nonc3nc2O)c1)c1ccc(OC(F)(F)F)cc1` [1-98, 2-(3-((6-hydroxy-[1,2,5]oxadiazolo[3,4-b]pyrazin-5-yl)amino)phenoxy)-1-(4-(trifluoromethoxy)phenyl)ethan-1-one], 5 to 20 µM. Then `Oc1nc2nonc2nc1Nc1ccc(OCCCC(F)(F)F)c(F)c1` [1-99, 6-((3-fluoro-4-(4,4,4-trifluorobutoxy)phenyl)amino)-[1,2,5]oxadiazolo[3,4-b]pyrazin-5-ol], with no more than 5 µM; and `Oc1nc2nonc2nc1Nc1ccc(OCCCC(F)(F)F)c(C(F)(F)F)c1` [1-100, 6-((4-(4,4,4-trifluorobutoxy)-3-(trifluoromethyl)phenyl)amino)-[1,2,5]oxadiazolo[3,4-b]pyrazin-5-ol], with no more than 5 µM.
